The target of one data set is T1, SARS-CoV-2 Mpro (Severe acute respiratory syndrome coronavirus 2, UniProt P0DTD1).
T1 construct: SARS-CoV-2 Mpro; purchased WuXi AppTec
Put plainly: In vitro anti-novel coronavirus Mpro protease activity (fluorogenic substrate). In kind it is biochemical. Conditions: 25 nM Mpro, 25 μM substrate, 30 min pre-incubation. How it is done: The compound was dissolved in DMSO, and diluted in a 3-fold gradient with Echo655 according to the concentration requirements to 10 concentration points, and duplicate tests were set at each concentration, and the diluted solution was added to a 384-well plate. Mpro protein and substrate were diluted with test buffer (100 mM NaCl, 20 mM Tris-HCl, 1 mM EDTA), and Mpro protein was added to the 384-well test plate, incubated with the compound for 30 min at room temperature, and then the substrate was added thereto, and the test concentration of Mpro protein was 25 nM, and the test concentration of substrate was 25 μM. After incubating for 60 minutes in a 30° C. constant temperature incubator, the fluorescence signal value of Ex/Em=340 nm/490 nm was detected by microplate reader. At the same time, the background well containing the substrate and compound but not containing Mpro protein was detected as control.
1) The inhibition rate was calculated using the following formula:
Inhibition rate %=[(compound-BGcompound)−(ZPE-BGZPE)]/[(HPE-BGHPE)−(ZPE-BGZPE)]*100%
ZPE: No-inhibition control, containing 25 nM Mpro protein+25 μM substrate, not containing compound
Compound: Test compound well, containing 25 nM Mpro protein+25 μM substrate+compound
BG: Background control well, containing 25 μM substrate+compound, not containing Mpro protein
2) Log (agonist) vs. response—variable slope nonlinear fitting analysis was carried out on the inhibition rate data (inhibition rate %) of the compound by using GraphPad Prism software, and the IC50 value of the compound was obtained.

Data set [1] can be described thus: Pharmacokinetic test in combination with Ritonavir in mice. Type of data set: in vivo, C57BL/6J male mice. Conditions: mouse, plasma, po, 10 mg/kg, p.o. 10 mpk. The protocol:
In this study, C57BL/6J male mice were selected as test animals, and the LC/MS/MS method was used to quantitatively measure the plasma concentrations of mice in combination with Ritonavir at different time points, so as to evaluate the pharmacokinetic characteristics of the test drug in mice.
Firstly, 10 mpk of Ritonavir was administered to mice by intragastric administration at −12 h and 0 h, and then the test compound was dissolved in 30% PEG400+70% normal saline solution and administered to mice by intragastric administration (overnight fasting, 6 to 8 weeks old). 25 μL of blood was collected at 0.083, 0.25, 0.5, 1, 2, 4, 8, 12 and 24 hours after administration to animals, placed in a commercial anticoagulant tube pre-added with EDTA-K2, and centrifuged at 4° C., 3200 g for 10 min to obtain plasma. After the plasma samples were treated, the plasma concentration was determined by LC-MS/MS method.

Data set [2] can be described thus: Pharmacokinetics test of mice. In kind it is in vivo, C57BL/6J male mice. As to conditions: mouse, plasma. How it is done:
In this study, C57BL/6J male mice were selected as test animals, and LC/MS/MS method was used to quantitatively measure the plasma concentration of the test compound 11 at different time points after oral administration and injection in mice, so as to evaluate the pharmacokinetic characteristics of the test drug in mice.
The test compound dissolved in 30% PEG400+70% normal saline was administered to mice (overnight fasting, 6-8 weeks old) by intragastric administration. 25 μL of blood was collected at 0.083, 0.25, 0.5, 1, 2, 4, 8, 12 and 24 hours after administration, respectively, and placed in commercial anticoagulation tubes pre-added with EDTA-K2, centrifuged at 4° C., 3200 g for 10 min to obtain plasma, and after the plasma sample was treated, the plasma concentration was determined by LC-MS/MS method.

Data set [3] can be described thus: Tissue distribution test in rats (after Ritonavir). Type of data set: in vivo, SD male rats. Conditions: rat, po, 30 mg/kg, with Ritonavir. The protocol:
In this study, SD male rats were selected as test animals, and the drug concentrations of test compounds in plasma and lungs of rats at different time points were quantitatively measured by LC/MS/MS method to evaluate the pharmacokinetic characteristics of test drugs in rats.
Firstly, 10 mpk of Ritonavir was administered to rats by intragastric administration at −12 h and 0 h, and 30 mpk of the test compound was dissolved in 10% Solutol+30% PEG 400+2% Tween 80+H2O 58% solution and administered to rats by intragastric administration (overnight fasting). 40 μL of blood was collected from the saphenous vein of rats at 0.25, 1 and 6 hours after administration, placed in an anticoagulant tube added with EDTA-K2, centrifuged at 4° C., 3200 g for 10 min to obtain plasma, and some animals were killed at 0.25, 1 and 6 hours respectively to collect lung tissue. After the plasma samples were treated, the plasma concentration was determined by LC-MS/MS method.

Consider six compounds from US20240158373A1, “RING-MODIFIED PROLINE SHORT PEPTIDE COMPOUND AND USE THEREOF” (FUJIAN AKEYLINK BIOTECHNOLOGY CO., LTD., priority 2021, published 2024).

Usually IC50 stands for the concentration that inhibits the measured activity by half. Higher therefore signals lower potency. By AUC(0-t) is commonly meant exposure summed from dosing to a finite time, without extrapolation to infinity. For orientation: Tmax means the time from dosing to the highest level. By Cmax is commonly meant the maximum level reached in the sampled fluid or tissue. Usually clearance stands for a measure of how efficiently the substance is removed, as volume per time. The term half-life denotes the time needed for the level to fall by half in the phase considered. Broadly, the AUC is concentration integrated over time.

Where two headings read alike, the source gives them in different places.

Consider `CC(C)(C)[C@H](NC(=O)C(F)(F)F)C(=O)N1C[C@@H]2C3C=CC(C3)[C@@H]2[C@H]1C(=O)N[C@H](C#N)C[C@@H]1CCNC1=O` (single isomer, unassigned) [Compound 28A], for which the IC50 against SARS-CoV-2 Mpro was 2.6 nM.

`CC(C)(C)[C@H](NC(=O)C(F)(F)F)C(=O)N1C[C@@H]2C3C=CC(C3)[C@@H]2[C@H]1C(=O)N[C@H](C#N)C[C@@H]1CCNC1=O` (single isomer, unassigned) [Compound 28] returned an IC50 against SARS-CoV-2 Mpro of 31 nM.

The compound `CC(C)(C)[C@H](NC(=O)C(F)(F)F)C(=O)N1C[C@@H]2C3CCC(C3)[C@@H]2[C@H]1C(=O)N[C@H](C#N)C[C@@H]1CCNC1=O` (single isomer, unassigned) [Compound 29-1] showed an IC50 against SARS-CoV-2 Mpro of 264 nM.

Take `CC(C)(C)[C@H](NC(=O)C(F)(F)F)C(=O)N1C[C@@H]2C3CCC(C3)[C@@H]2[C@H]1C(=O)N[C@H](C#N)C[C@@H]1CCNC1=O` (single isomer, unassigned) [Compound 29-2]: at SARS-CoV-2 Mpro, 11 nM corresponded to half-maximal inhibition (IC50).

Turning to `N#C[C@H](C[C@@H]1CCNC1=O)NC(=O)[C@@H]1[C@H]2CC[C@H](C2)N1C(=O)[C@@H](NC(=O)C(F)(F)F)C12CC3CC(CC(F)(C3)C1)C2` [Compound 9], at SARS-CoV-2 Mpro, the midpoint of inhibition, the IC50, lay at 25 nM.

Take `CC(C)(C)[C@H](NC(=O)C(F)(F)F)C(=O)N1[C@H]2C[C@@H]([C@H]1C(=O)N[C@H](C#N)C[C@@H]1CCNC1=O)C1(CC1)C2` [Compound 11]: the AUC(0-t) in data set [1] (with Ritonavir 10 mpk) came to 28.7 µM·h; in data set [2] (iv, 3 mg/kg, i.v. 3 mpk), 1.45 µM·h; in data set [2] (po, 10 mg/kg, p.o. 10 mpk), 1.52 µM·h. Moreover, the Tmax in data set [1] (with Ritonavir 10 mpk) came to 30 min; in data set [2] (po, 10 mg/kg, p.o. 10 mpk), 15 min. Besides, the Cmax came out at 10.1 µM in data set [1] (with Ritonavir 10 mpk at −12 h and 0 h); 1.85 µM in data set [2] (po, 10 mg/kg, p.o. 10 mpk). The compound also yielded a clearance in data set [2] (iv, 3 mg/kg, i.v. 3 mpk) of 68.5 mL/min/kg. In addition, in data set [2] (iv, 3 mg/kg, i.v. 3 mpk), the half-life was 12 min. Also, the Vd in data set [2] (iv, 3 mg/kg, i.v. 3 mpk, read-out: Vdss) is 0.9 L/kg. In addition, the Kp at 0.25 h in data set [3] (lung, 0.25 h, given as x/1, read-out: Lung/plasma ratio at 0.25 h) was 5.5. For the same compound, the Kp at 1 h in data set [3] (lung, 1 h, given as x/1, read-out: Lung/plasma ratio at 1 h) came to 3.2. The Kp at 6 h in data set [3] (lung, 6 h, given as x/1, read-out: Lung/plasma ratio at 6 h) came out at 1.6; in data set [3] (lung, given as x/1, read-out: Lung/plasma ratio of AUC(0-6 h)), 2.6. For the same compound, the concentration at 0.25 h in data set [3] (30 mpk intragastric, lung, 0.25 h, read-out: Lung concentration at 0.25 h) came to 15.8 µM; in data set [3] (30 mpk intragastric, plasma, 0.25 h, read-out: Plasma concentration at 0.25 h), 2.86 µM. The concentration at 1 h in data set [3] (30 mpk intragastric, lung, 1 h, read-out: Lung concentration at 1 h) is 18.4 µM; in data set [3] (30 mpk intragastric, plasma, 1 h, read-out: Plasma concentration at 1 h), 5.49 µM. Further, the concentration at 6 h is 7.85 µM in data set [3] (30 mpk intragastric, lung, 6 h, read-out: Lung concentration at 6 h) and 4.88 µM in data set [3] (30 mpk intragastric, plasma, 6 h, read-out: Plasma concentration at 6 h). Further, the AUC at 6 h in data set [3] (30 mpk intragastric, lung, read-out: Lung AUC(0-6 h)) came out at 76.8 µM·h. The compound also had an AUC(0-t) at 6 h in data set [3] (30 mpk intragastric, plasma) of 29.4 µM·h.
